Source: patent publication US9328122B2, “7-substituted Hanfangichin B derivative, and preparation method and use thereof” (HANGZHOU BENSHENG PHARMACEUTICAL CO., LTD., priority 2012, dated 2016)
≈ marks a conversion by molar mass, not a printed value.

How the values were obtained:
[1] = test system: Kasumi-1 (acute myeloid leukemia M2 type) cells; assay: MTT cell growth inhibition, leukemia cells; format: cell-based, human; details: Homo sapiens, Kasumi-1, 72 h, MTT
Excerpt: (§1) Leukemia cell lines: leukemia cell lines: K562adr (drug-resistant, chronic myeloid leukemia, CML), NB4 (acute promyelocytic leukemia, AML), Kasumi-1 (acute myeloid leukemia M2 type, AML-M2), Jurkat (acute lymphoblastic leukemia, ALL), all of which were donated by Cancer Research Institute of Zhejiang University, China; and H9 (acute lymphoblastic leukemia, ALL), which was purchased from China Center for Type Culture Collection.
(§2) Reagents: The standard sample of fangchinoline (FAN) was purchased from Ci Yuan Biotechnology Co., Ltd., Shaanxi, China; and the 7-substituted fangchinoline derivatives according to the present invention.
(§3) 6000 well-growing leukemia cells were obtained and inoculated into wells of a 96-well cell culture plate. The culture medium was a RPMI-1640 cell culture medium containing 10% fetal bovine serum. After adding the 7-substituted fangchinoline derivatives of different concentrations the next day and mixing uniformly, the plate was placed in a carbon dioxide cell incubator (5% CO2) at 37° C. and incubating for 72 hours. Then the viable cell concentration was determined by the MTT method.

[2] = test system: H9 (acute lymphoblastic leukemia) cells; assay: MTT cell growth inhibition, leukemia cells; format: cell-based, human; details: Homo sapiens, H9, 72 h, MTT
Excerpt: as §1, §2, §3

[3] = test system: Jurkat (acute lymphoblastic leukemia) cells; assay: MTT cell growth inhibition, leukemia cells; format: cell-based, human; details: Homo sapiens, Jurkat, 72 h, MTT
Excerpt: as §1, §2, §3

[4] = test system: PC-3 (prostate cancer) cells; assay: MTT cell growth inhibition, solid tumor cells; format: cell-based, human; details: Homo sapiens, PC-3, 72 h, MTT
Excerpt: (§4) Hep-2 (laryngeal carcinoma), A549 (human lung cancer), CaES-17 (esophageal cancer cell), PC-3 (prostate cancer), CNE (nasopharyngeal carcinoma cell) and SK-OV-3 (ovarian cancer cell), all of which were purchased from China Center For Type Culture Collection; RKO (human colon adenocarcinoma cell), MGC-803 (human gastric cancer cell), MG-63 (osteosarcoma), and U87-MG (malignant glioma cell), all of which were purchased from Fuxiang Bio-tech Co. Ltd., Shanghai, China; PANC-1 (pancreatic cancer), Becap37 (human breast cancer cell), Hela (human cervical cancer cell) and Hep G2 (human liver cancer cell), all of which were donated by Cancer Research Institute of Zhejiang University, China.
as §3, with “human solid tumor” for “leukemia”, “DMEM High Glucose” for “a RPMI-1640”, “serum. The plate was placed in a carbon dioxide cell incubator (5% CO2) at 37° C. and incubated for 24 hours.” for “serum.”, “added with” for “adding the”, “concentration” for “concentrations the next day”, “incubated” for “incubating”

[5] = test system: PANC-1 (pancreatic cancer) cells; assay: MTT cell growth inhibition, solid tumor cells; format: cell-based, human; details: Homo sapiens, PANC-1, 72 h, MTT
Excerpt: as §4
as §3, with “human solid tumor” for “leukemia”, “DMEM High Glucose” for “a RPMI-1640”, “serum. The plate was placed in a carbon dioxide cell incubator (5% CO2) at 37° C. and incubated for 24 hours.” for “serum.”, “added with” for “adding the”, “concentration” for “concentrations the next day”, “incubated” for “incubating”

[6] = test system: CNE (nasopharyngeal carcinoma) cells; assay: MTT cell growth inhibition, solid tumor cells; format: cell-based, human; details: Homo sapiens, CNE, 72 h, MTT
Excerpt: as §4
as §3, with “human solid tumor” for “leukemia”, “DMEM High Glucose” for “a RPMI-1640”, “serum. The plate was placed in a carbon dioxide cell incubator (5% CO2) at 37° C. and incubated for 24 hours.” for “serum.”, “added with” for “adding the”, “concentration” for “concentrations the next day”, “incubated” for “incubating”

[7] = test system: CaEs-17 (esophageal cancer) cells; assay: MTT cell growth inhibition, solid tumor cells; format: cell-based, human; details: Homo sapiens, CaEs17, CaEs-17, 72 h, MTT
Excerpt: as §4
as §3, with “human solid tumor” for “leukemia”, “DMEM High Glucose” for “a RPMI-1640”, “serum. The plate was placed in a carbon dioxide cell incubator (5% CO2) at 37° C. and incubated for 24 hours.” for “serum.”, “added with” for “adding the”, “concentration” for “concentrations the next day”, “incubated” for “incubating”

[8] = test system: SK-OV-3 (ovarian cancer) cells; assay: MTT cell growth inhibition, solid tumor cells; format: cell-based, human; details: Homo sapiens, SK-OV-3, 72 h, MTT
Excerpt: as §4
as §3, with “human solid tumor” for “leukemia”, “DMEM High Glucose” for “a RPMI-1640”, “serum. The plate was placed in a carbon dioxide cell incubator (5% CO2) at 37° C. and incubated for 24 hours.” for “serum.”, “added with” for “adding the”, “concentration” for “concentrations the next day”, “incubated” for “incubating”

tumor = assay: Antitumor activity compared with fangchinoline, overall statement; format: cell-based; details: tumor type not specified
[9] = test system: RPMI 8226 (multiple myeloma) cells; assay: MTT cell growth inhibition, multiple myeloma cells; format: cell-based, human; details: Homo sapiens, RPMI 8226, 72 h, MTT
Protocol: Myeloma cell lines: RPMI8226 (multiple myeloma), purchased from Fuxiang Bio-tech Co. Ltd., Shanghai, China.
as §3, with “well-growing” for “well-growing leukemia”, “incubated” for “incubating”

[10] = test system: Becap-37 (human breast cancer) cells; assay: MTT cell growth inhibition, solid tumor cells; format: cell-based; details: Homo sapiens, Becap-37, 72 h, MTT
Excerpt: as §4
as §3, with “human solid tumor” for “leukemia”, “DMEM High Glucose” for “a RPMI-1640”, “serum. The plate was placed in a carbon dioxide cell incubator (5% CO2) at 37° C. and incubated for 24 hours.” for “serum.”, “added with” for “adding the”, “concentration” for “concentrations the next day”, “incubated” for “incubating”

[11] = test system: MG-63 (osteosarcoma) cells; assay: MTT cell growth inhibition, solid tumor cells; format: cell-based; details: Homo sapiens, MG-63, 72 h, MTT
Excerpt: as §4
as §3, with “human solid tumor” for “leukemia”, “DMEM High Glucose” for “a RPMI-1640”, “serum. The plate was placed in a carbon dioxide cell incubator (5% CO2) at 37° C. and incubated for 24 hours.” for “serum.”, “added with” for “adding the”, “concentration” for “concentrations the next day”, “incubated” for “incubating”

[12] = test system: MGC-803 (human gastric cancer) cells; assay: MTT cell growth inhibition, solid tumor cells; format: cell-based; details: MGC-803, 72 h, MTT
Excerpt: as §4
as §3, with “human solid tumor” for “leukemia”, “DMEM High Glucose” for “a RPMI-1640”, “serum. The plate was placed in a carbon dioxide cell incubator (5% CO2) at 37° C. and incubated for 24 hours.” for “serum.”, “added with” for “adding the”, “concentration” for “concentrations the next day”, “incubated” for “incubating”

[13] = test system: Hep G2 (human liver cancer) cells; assay: MTT cell growth inhibition, solid tumor cells; format: cell-based; details: Homo sapiens, HepG2, Hep G2, 72 h, MTT
Excerpt: as §4
as §3, with “human solid tumor” for “leukemia”, “DMEM High Glucose” for “a RPMI-1640”, “serum. The plate was placed in a carbon dioxide cell incubator (5% CO2) at 37° C. and incubated for 24 hours.” for “serum.”, “added with” for “adding the”, “concentration” for “concentrations the next day”, “incubated” for “incubating”

[14] = test system: RKO (human colon adenocarcinoma) cells; assay: MTT cell growth inhibition, solid tumor cells; format: cell-based; details: Homo sapiens, RKO, 72 h, MTT
Excerpt: as §4
as §3, with “human solid tumor” for “leukemia”, “DMEM High Glucose” for “a RPMI-1640”, “serum. The plate was placed in a carbon dioxide cell incubator (5% CO2) at 37° C. and incubated for 24 hours.” for “serum.”, “added with” for “adding the”, “concentration” for “concentrations the next day”, “incubated” for “incubating”

[15] = test system: Hela (human cervical cancer) cells; assay: MTT cell growth inhibition, solid tumor cells; format: cell-based; details: Homo sapiens, Hela, 72 h, MTT
Excerpt: as §4
as §3, with “human solid tumor” for “leukemia”, “DMEM High Glucose” for “a RPMI-1640”, “serum. The plate was placed in a carbon dioxide cell incubator (5% CO2) at 37° C. and incubated for 24 hours.” for “serum.”, “added with” for “adding the”, “concentration” for “concentrations the next day”, “incubated” for “incubating”

[16] = test system: NB4 (acute promyelocytic leukemia) cells; assay: MTT cell growth inhibition, leukemia cells; format: cell-based; details: Homo sapiens, NB4, 72 h, MTT
Excerpt: as §1, §2, §3

[17] = test system: K562/ADR (K562adr, drug-resistant chronic myeloid leukemia) cells; assay: MTT cell growth inhibition, leukemia cells; format: cell-based; details: Homo sapiens, K562/ADR, 72 h, MTT
Excerpt: as §1, §2, §3

IC50 ([1]; read-out: IC50): 1 µg/mL (≈ 1.51 µM)
IC90 ([1]; read-out: IC90): 3.39 µg/mL (≈ 5.11 µM)
IC50 ([2]; read-out: IC50): 1.96 µg/mL (≈ 2.96 µM)
IC90 ([2]; read-out: IC90): 4 µg/mL (≈ 6.03 µM)
IC50 ([3]; read-out: IC50): 0.52 µg/mL (≈ 0.785 µM)
IC90 ([3]; read-out: IC90): 1.89 µg/mL (≈ 2.85 µM)
IC50 ([4]; read-out: IC50): 3 µg/mL (≈ 4.53 µM)
IC90 ([4]; read-out: IC90): 5.46 µg/mL (≈ 8.24 µM)
IC50 ([5]; read-out: IC50): 1.42 µg/mL (≈ 2.14 µM)
IC90 ([5]; read-out: IC90): 4.65 µg/mL (≈ 7.02 µM)
IC50 ([6]; read-out: IC50): 1.8 µg/mL (≈ 2.72 µM)
IC90 ([6]; read-out: IC90): 3.8 µg/mL (≈ 5.73 µM)
IC50 ([7]; read-out: IC50): 1.53 µg/mL (≈ 2.31 µM)
IC90 ([7]; read-out: IC90): 5.6 µg/mL (≈ 8.45 µM)
IC50 ([8]; read-out: IC50): 2.38 µg/mL (≈ 3.59 µM)
IC90 ([8]; read-out: IC90): 3.94 µg/mL (≈ 5.94 µM)
IC50 ([9]; read-out: IC50): 0.11 µg/mL (≈ 0.166 µM)
IC90 ([9]; read-out: IC90): 0.46 µg/mL (≈ 0.694 µM)
IC50 ([10]; read-out: IC50): 1.91 µg/mL (≈ 2.88 µM)
IC90 ([10]; read-out: IC90): 3.86 µg/mL (≈ 5.82 µM)
IC50 ([11]; read-out: IC50): 0.8 µg/mL (≈ 1.21 µM)
IC90 ([11]; read-out: IC90): 1.9 µg/mL (≈ 2.87 µM)
IC50 ([12]; read-out: IC50): 1.19 µg/mL (≈ 1.8 µM)
IC90 ([12]; read-out: IC90): 3.93 µg/mL (≈ 5.93 µM)
IC50 ([13]; read-out: IC50): 1.48 µg/mL (≈ 2.23 µM)
IC90 ([13]; read-out: IC90): 4.37 µg/mL (≈ 6.59 µM)
IC50 ([14]; read-out: IC50): 1.37 µg/mL (≈ 2.07 µM)
IC90 ([14]; read-out: IC90): 2.76 µg/mL (≈ 4.16 µM)
IC50 ([15]; read-out: IC50): 0.71 µg/mL (≈ 1.07 µM)
IC90 ([15]; read-out: IC90): 1.9 µg/mL (≈ 2.87 µM)
IC50 ([16]; read-out: IC50): 0.57 µg/mL (≈ 0.86 µM)
IC90 ([16]; read-out: IC90): 1.88 µg/mL (≈ 2.84 µM)
IC50 ([17]; read-out: IC50): 0.33 µg/mL (≈ 0.498 µM)
IC90 ([17]; read-out: IC90): 1.31 µg/mL (≈ 1.98 µM)
SMILES: C=C(C)COc1c(OC)cc2c3c1Oc1cc4c(cc1OC)CCN(C)[C@H]4Cc1ccc(cc1)Oc1cc(ccc1OC)C[C@@H]3N(C)CC2 [BS-FC-221]
antitumor activity compared with that of fangchinoline (tumor): significantly superior
